Columns and labels:
[1] = target: T1, human HDAC-1 (Homo sapiens, UniProt Q13547); assay: histone deacetylase enzyme assay, HDAC-1; format: biochemical
T1 construct: made in house; host or cells: insect cells (baculovirus expression system)
Procedure: (§1) The other HDAC isotypes, HDAC-3 and HDAC-4, were purified directly on an anti-Flag affinity column.
(§2) For the deacetylase assay, 20,000 cpm of an [^3H]-metabolically-labeled acetylated histone was used as a substrate. Histones were incubated with cloned recombinant human HDAC enzymes at 37° C. […] All assay conditions were pre-determined to be certain that each reaction was linear. Reactions were stopped by adding acetic acid (0.04 M final concentration) and HCl (250 mM, final concentration). The mixture was extracted with ethyl acetate, and the released [3H]-acetic acid was quantified by liquid scintillation counting. For the inhibition studies, HDAC enzyme was preincubated with test compounds for 30 minutes at 4° C. prior to the start of the enzymatic assay. IC50 values for HDAC enzyme inhibitors were identified with dose response curves for each individual compound and, thereby, obtaining a value for the concentration of inhibitor that produced fifty percent of the maximal inhibition.

[2] = target: HDAC 2 (Homo sapiens, UniProt Q92769); assay: histone deacetylase enzyme assay, HDAC 2; format: biochemical
Procedure: as §2

[3] = target: T2, human HDAC-3 (Homo sapiens, UniProt O15379); assay: histone deacetylase enzyme assay, HDAC-3; format: biochemical
T2 construct: made in house; host or cells: insect cells (baculovirus expression system)
Procedure: as §1, §2

[4] = target: T3, human HDAC-4 (Homo sapiens, UniProt P56524); assay: histone deacetylase enzyme assay, HDAC-4; format: biochemical
T3 construct: Flag; made in house; host or cells: human embryonic kidney 293 cells (calcium phosphate transfection)
Procedure: Flag-tagged human HDAC-4 enzyme was produced in human embronic kidney 293 cells after transformation by the calcium phosphate precipitation method. Briefly, 293 cells were cultured in Dulbecco's Modified Eagle Medium (DMEM) containing 10% fetal bovine serum and antibiotics. Plasmid DNA encoding Flag-tagged human HDAC-4 was precipitated by ethanol and resuspend in sterile water. DNA-calcium precipitates, formed by mixing DNA, calcium choloride and 2×HEPES-buffered saline solution, were left on 293 cells for 12-16 hours. Cells were return to serum-contained DMEM medium and harvested at 48 hour post transfection for purification of Flag-tagged HDAC-4 enzyme.
as §1, §2

[5] = target: T4, human HDAC-6 (Homo sapiens, UniProt Q9UBN7); assay: histone deacetylase enzyme assay, HDAC-6; format: biochemical
T4 construct: made in house; host or cells: insect cells (baculovirus expression system)
T4 sequence (Q9UBN7 1-1215): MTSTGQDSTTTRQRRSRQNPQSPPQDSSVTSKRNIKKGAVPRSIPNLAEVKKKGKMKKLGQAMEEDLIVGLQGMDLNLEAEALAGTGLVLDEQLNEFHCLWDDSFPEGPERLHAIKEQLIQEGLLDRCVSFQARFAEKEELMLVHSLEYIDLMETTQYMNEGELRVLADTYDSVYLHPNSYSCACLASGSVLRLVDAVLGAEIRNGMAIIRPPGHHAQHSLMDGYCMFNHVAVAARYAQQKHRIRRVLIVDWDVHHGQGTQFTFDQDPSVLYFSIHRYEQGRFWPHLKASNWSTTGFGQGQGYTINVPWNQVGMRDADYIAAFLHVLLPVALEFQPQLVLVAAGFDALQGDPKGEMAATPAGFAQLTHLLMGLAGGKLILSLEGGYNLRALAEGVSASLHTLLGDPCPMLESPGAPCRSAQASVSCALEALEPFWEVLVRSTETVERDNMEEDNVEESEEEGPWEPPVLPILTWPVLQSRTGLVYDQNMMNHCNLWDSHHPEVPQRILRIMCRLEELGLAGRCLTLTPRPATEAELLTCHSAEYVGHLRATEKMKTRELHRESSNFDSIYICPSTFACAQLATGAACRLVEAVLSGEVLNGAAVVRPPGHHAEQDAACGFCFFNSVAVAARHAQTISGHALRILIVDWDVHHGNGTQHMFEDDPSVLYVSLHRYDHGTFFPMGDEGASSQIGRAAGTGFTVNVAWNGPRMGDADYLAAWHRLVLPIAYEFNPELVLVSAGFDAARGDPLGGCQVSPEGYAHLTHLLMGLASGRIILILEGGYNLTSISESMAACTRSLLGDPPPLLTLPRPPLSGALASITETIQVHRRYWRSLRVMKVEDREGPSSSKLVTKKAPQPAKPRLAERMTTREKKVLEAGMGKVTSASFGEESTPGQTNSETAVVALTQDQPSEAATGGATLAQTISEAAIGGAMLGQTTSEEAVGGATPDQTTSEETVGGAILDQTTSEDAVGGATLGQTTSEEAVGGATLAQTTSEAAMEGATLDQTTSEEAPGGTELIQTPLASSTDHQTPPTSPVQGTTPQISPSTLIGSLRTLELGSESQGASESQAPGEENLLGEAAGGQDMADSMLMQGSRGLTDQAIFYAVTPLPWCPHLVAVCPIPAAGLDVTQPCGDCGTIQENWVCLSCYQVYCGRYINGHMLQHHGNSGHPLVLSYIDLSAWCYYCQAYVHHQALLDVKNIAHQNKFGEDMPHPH
Procedure: as §1, §2

[6] = test system: acetylated histone H-4 in T24 human bladder cancer cells; assay: inhibition of HDAC activity in whole cells (acetylated histone H-4 Western); format: cell-based; conditions: 16 hours
Procedure: T24 human bladder cancer cells (ATCC, Manassas, Va.) growing in culture were incubated with test compounds for 16 hours. Histones were extracted from the cells by standard procedures (see e.g. Yoshida et al., supra) after the culture period. Twenty μg total core histone protein was loaded onto SDS/PAGE and transferred to nitrocellulose membranes, which were then reacted with polyclonal antibody specific for acetylated histone H-4 (Upstate Biotech Inc., Lake Placid, […].). Horse Radish Peroxidase conjugated secondary antibody was used at a dilution of 1:5000 to detect primary antibody binding. The secondary antibody binding was visualized by use of the Enhanced chemiluminescence (ECL) detection kit (Amersham-Pharmacia Biotech., Inc., Piscataway, N.J.). After exposure to film, acetylated H-4 signal was quantitated by densitometry.

[7] = test system: human colon cancer HCT116 cells; assay: MTT assay of cell proliferation and cytotoxicity; format: cell-based; conditions: HCT-116, 48 hours
Procedure: Four thousand five hundred (4,500) human colon cancer HCT116 cells (ATCC, Manassas, Va. were used in an MTT (3-[4,5-dimethylthiazol-2-yl]-2,5 diphenyl tetrazolium bromide) assay to quantitatively determine cell proliferation and cytotoxicity. Typically, HCT116 cells were plated into each well of the 96-well tissue culture plate and left overnight to attach to the plate. Compounds at various concentrations (1 uM, 5 uM and 25 uM, in DMSO) were added in triplicate into the culture media (final DMSO concentration 1%) and incubated for 48 hours. MTT solution (obtained from Sigma as powder) was added and incubated with the cells for 4 hours at 37° C. in incubator with 5% CO2. During the incubation, viable cells convert MTT to a water-insoluble formazan dye. Solubilizing buffer (50% N,N-dimethylformamide, 20% SDS, pH 4.7) was added to cells and incubate for overnight at 37C in incubator with 5% CO2. Solubilized dye was quantitated by colorimetric reading at […] using a reference of […].

[8] = cell cycle arrest; format: cell-based
[9] = test system: p21; assay: p21 induction by small molecules; format: cell-based
[10] = test system: human colon cancer cells (HCT116); assay: tumor growth in a mouse model, colon; format: in vivo, BALB/c nude mice; conditions: 40 mg/kg body weight/day, i p; vs vehicle-treated mice
Procedure: Female BALB/c nude mice were obtained from Charles River Laboratories (Charles River, NY) and used at age 8-10 weeks. Human prostate tumor cells (DU145, 2×10^6) or human colon cancer cells (HCT116; 2×10^6) or small lung core A549 2×10^6 were injected subcutaneously in the animal's flank and allowed to form solid tumors. Tumor fragments were serially passaged a minimum of three times, then approximately 30 mg tumor fragments were implanted subcutaneously through a small surgical incision under general anaesthesia. Small molecule inhibitor administration by intraperotineal or oral administration was initiated when the tumors reached a volume of 100 mm^3. For intraperotineal administration, small molecule inhibitors of HDAC (40-50 mg/kg body weight/day) were dissolved in 100% DMSO and administered daily intraperitoneally by injection. For oral administration, small molecule inhibitors of HDAC (40-50 mg/kg body weight/days) were dissolved in a solution containing 65% polyethylene glycol 400 (PEG 400 (Sigma-Aldridge, Mississauga, Ontario, Calif., Catalogue No. P-3265), 5% ethanol, and 30% water. Tumor volumes were monitored twice weekly up to 20 days. Each experimental group contained at least 6-8 animals. Percentage inhibition was calculated using volume of tumor from vehicle-treated mice as controls.

T1 sequence (Q13547 whole entry): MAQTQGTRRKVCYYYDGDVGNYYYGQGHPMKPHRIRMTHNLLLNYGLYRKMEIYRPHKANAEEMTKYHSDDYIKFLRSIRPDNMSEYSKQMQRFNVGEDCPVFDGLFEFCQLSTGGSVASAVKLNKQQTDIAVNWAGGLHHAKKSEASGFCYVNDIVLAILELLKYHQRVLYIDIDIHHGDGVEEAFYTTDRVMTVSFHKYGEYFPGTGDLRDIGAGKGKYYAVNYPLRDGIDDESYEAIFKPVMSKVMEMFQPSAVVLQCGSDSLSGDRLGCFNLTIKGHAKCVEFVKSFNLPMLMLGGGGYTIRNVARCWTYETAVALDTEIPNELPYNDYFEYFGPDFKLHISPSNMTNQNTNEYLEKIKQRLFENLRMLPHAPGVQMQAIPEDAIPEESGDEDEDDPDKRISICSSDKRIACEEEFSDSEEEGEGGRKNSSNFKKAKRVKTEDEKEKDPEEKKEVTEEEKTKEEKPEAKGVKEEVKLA
T2 sequence (O15379 whole entry): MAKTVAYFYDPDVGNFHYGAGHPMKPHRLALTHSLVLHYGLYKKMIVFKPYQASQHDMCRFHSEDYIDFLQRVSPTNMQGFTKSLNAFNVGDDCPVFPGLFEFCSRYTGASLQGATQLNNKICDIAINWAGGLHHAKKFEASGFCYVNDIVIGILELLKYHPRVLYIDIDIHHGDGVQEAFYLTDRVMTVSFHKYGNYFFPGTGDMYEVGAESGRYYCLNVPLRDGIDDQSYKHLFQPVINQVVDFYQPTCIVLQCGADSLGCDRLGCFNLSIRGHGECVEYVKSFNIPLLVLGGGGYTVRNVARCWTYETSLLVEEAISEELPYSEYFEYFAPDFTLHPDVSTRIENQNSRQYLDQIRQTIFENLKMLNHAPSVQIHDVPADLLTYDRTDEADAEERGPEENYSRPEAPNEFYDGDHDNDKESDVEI
T3 sequence (P56524 whole entry): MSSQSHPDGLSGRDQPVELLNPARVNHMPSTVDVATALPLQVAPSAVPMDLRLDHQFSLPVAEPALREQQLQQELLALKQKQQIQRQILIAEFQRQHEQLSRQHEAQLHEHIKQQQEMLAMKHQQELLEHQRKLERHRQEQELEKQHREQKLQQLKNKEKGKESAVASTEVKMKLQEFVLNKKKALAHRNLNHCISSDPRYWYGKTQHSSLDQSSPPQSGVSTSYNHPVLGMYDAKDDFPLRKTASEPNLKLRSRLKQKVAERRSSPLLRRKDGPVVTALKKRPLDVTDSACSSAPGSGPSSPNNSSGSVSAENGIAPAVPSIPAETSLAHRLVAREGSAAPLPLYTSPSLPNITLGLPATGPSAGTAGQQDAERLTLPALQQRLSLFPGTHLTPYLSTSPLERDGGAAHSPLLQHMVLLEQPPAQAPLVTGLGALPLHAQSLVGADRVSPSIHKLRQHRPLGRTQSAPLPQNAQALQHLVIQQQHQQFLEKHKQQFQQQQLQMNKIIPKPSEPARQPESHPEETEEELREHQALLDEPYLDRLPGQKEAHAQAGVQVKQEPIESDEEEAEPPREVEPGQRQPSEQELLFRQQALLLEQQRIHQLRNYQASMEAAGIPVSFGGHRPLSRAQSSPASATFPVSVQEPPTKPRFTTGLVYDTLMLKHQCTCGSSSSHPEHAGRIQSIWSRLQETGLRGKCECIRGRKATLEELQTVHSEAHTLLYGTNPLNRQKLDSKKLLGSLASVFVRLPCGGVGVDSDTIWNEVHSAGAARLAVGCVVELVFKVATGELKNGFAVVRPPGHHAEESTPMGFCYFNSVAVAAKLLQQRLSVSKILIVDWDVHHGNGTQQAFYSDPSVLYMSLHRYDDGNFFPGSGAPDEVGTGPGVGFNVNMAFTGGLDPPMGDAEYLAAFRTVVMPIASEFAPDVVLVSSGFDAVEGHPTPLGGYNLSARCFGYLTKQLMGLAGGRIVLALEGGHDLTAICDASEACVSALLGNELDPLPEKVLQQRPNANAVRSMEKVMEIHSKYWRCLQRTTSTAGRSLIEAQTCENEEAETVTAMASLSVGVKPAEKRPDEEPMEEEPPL
Sequence of HDAC 2 (Q92769 whole entry): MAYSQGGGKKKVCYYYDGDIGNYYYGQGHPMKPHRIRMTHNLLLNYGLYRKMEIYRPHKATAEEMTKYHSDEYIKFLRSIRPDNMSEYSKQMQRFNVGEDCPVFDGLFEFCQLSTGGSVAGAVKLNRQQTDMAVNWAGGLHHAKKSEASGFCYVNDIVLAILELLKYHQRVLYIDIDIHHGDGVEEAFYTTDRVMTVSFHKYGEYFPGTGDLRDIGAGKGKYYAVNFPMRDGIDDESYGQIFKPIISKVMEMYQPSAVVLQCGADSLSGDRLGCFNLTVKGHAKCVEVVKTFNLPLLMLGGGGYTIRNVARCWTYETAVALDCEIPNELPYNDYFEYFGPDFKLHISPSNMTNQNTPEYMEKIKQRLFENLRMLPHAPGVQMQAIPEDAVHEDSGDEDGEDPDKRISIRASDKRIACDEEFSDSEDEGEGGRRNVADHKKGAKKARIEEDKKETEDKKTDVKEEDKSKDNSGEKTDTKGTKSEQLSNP

SMILES	IC50 [1] [µM]	IC50 [2] [µM]	IC50 [3] [µM]	IC50 [4] [µM]	IC50 [5] [µM]	effective concentration for histone H4 acetylation [6] [µM]	IC50 [7] [µM]	cell cycle arrest EC [8] [µM]	p21 induction [9] [µM]	% inh. of tumor formation in vivo, colon [10]
CC(/C=C/C(=O)Nc1ccccc1N)=C\C(C)C(=O)c1ccc(N(C)C)cc1 (stereo not drawn) [MG 242 9]	3	25	21	23	> 50	1	1	2	3	
Cc1ccc(S(=O)(=O)Nc2ccc(/C=C/C(=O)Nc3ccccc3N)cc2)cc1 [MG 376 3]	3		45	28	> 50	5	4	2	2	55 (40, i p) %
